Patent publication US20040259959A1, “Method and pharmaceutical preparation for reducing the activity of cells” (priority 2001, published 2004)

Key:
[1] = tested on: dimethylbenz(a)anthracene(DMBA)/UV-B induced tumors; details: mice; cited from earlier work
UV-B induced tumors = details: mice treated with phytoene; cited from earlier work
[2] = tested on: H-ras-induced cell transformation; details: mammalian cells producing phytoene; cited from earlier work
[3] = tested on: MCF-7 mammary cancer cell; test: MCF-7 mammary cancer cell proliferation ([3H]thymidine incorporation), stimulated by 3% serum; type: cell-based
Description: (§1) FIG. 1. […] MCF-7 mammary cancer cell were preincubated for 24 hours in 0.5% serum and then growth ([^3H]thymidine incorporation) was stimulated by 3% serum. Stimulated cells were treated for 3 days with the indicated concentrations of the astaxanthin alone or in combination with 0.3 μM lycopene (FIG. 1A). The high concentrations of lycopene and astaxanthin (FIG. 1B) are indicated. Data presented are the mean±SE of 2-3 independent experiments performed in quadruplicates.
as §1, with “FIG. 4.” for “FIG. 1.”, “the phytoene and phytofluene (phytoene) mixture” for “the astaxanthin”, “(FIG. 4A).” for “(FIG. 1A).”, “and phytoene plus phytofluene” for “and astaxanthin”, “(FIG. 4B)” for “(FIG. 1B)”
FIG. 5. […] MCF-7 mammary cancer cell were preincubated for 24 hours in 0.5% serum and then growth ([^3H]thymidine incorporation) was stimulated by 3% serum. Stimulated cells were treated for 3 days with the indicated concentrations Of the beta-carotene alone or in combination with 0.3 μM lycopene (FIG. 5A). The high concentrations of lycopene and beta-carotene (FIG. 5B) are indicated. Data presented are the mean±SE of 2-3 independent experiments performed in quadruplicates.

[4] = tested on: LNCaP prostate cancer cell; test: DHT induced LNCaP prostate cancer cell proliferation ([3H]thymidine incorporation); type: cell-based; details: 3 days
Description: FIG. 2. […] LNCaP prostate cancer cell were preincubated for 24 hours in 1.5% serum and then growth ([^3]thymidine incorporation) was stimulated by addition of […] (DHT). Stimulated cells were treated for 3 days with the indicated concentrations of the phytoene and phytofluene (phytoene) mixture alone or in combination with 0.3 μM Lycopene (plus lycopene) (FIG. 2A). The high concentrations of lycopene and phytoene plus phytofluene (FIG. 2B) are indicated. Data presented are the mean±SE of 2-3 independent experiments performed in quadruplicates.
FIG. 3. […] LNCaP prostate cancer cell were preincubated for 24 hours in 1.5% serum and then growth ([^3]thynidine incorporation) was stimulated by addition of 10^−9 M dihydrotestosterone DHT). Stimulated cells were treated for 3 days with the indicated concentrations of the beta-carotene alone or in combination with 0.3 μM lycopene (FIG. 3A). The high concentrations of lycopene and beta-carotene (FIG. 3B) are indicated. Data presented are the mean±SE of 2-3 independent experiments performed in quadruplicates.

[5] = subjects receiving high supplementation of lycopene; cited from earlier work
[6] = up to levels of 4 μM; cited from earlier work

Compound	treating DMBA/UV-B induced tumors [1]	UV-B induced tumors developed versus control mice (UV-B induced tumors)	resistance to H-ras-induced cell transformation [2]	effect of lycopene on the inhibitory effects of astaxanthin on mammary cancer cell proliferation ([3]; MCF-7, 0.3 μM lycopene combined with astaxanthin, 3 days, FIG. 1)	effect of lycopene on the inhibitory effects of beta-carotene on mammary cancer cell proliferation ([3]; MCF-7, 0.3 μM lycopene combined with beta-carotene, 3 days, FIG. 5)	effect of lycopene on the inhibitory effects of phytoene and phytofluene on mammary cancer cell proliferation ([3]; MCF-7, 0.3 μM lycopene combined with phytoene and phytofluene mixture, 3 days, FIG. 4)	decrease in proliferation ([3]; breast cancer cells, lycopene alone at low concentration (0.3 μM))	concentration of lycopene alone giving the same dramatic inhibition of cancer cells as the combination ([3]; lycopene alone) [µM]	effect of lycopene on the inhibitory effects of beta-carotene on DHT induced prostate cancer cell proliferation ([4]; 0.3 μM lycopene combined with beta-carotene, FIG. 3)	effect of lycopene on the inhibitory effects of phytoene and phytofluene on DHT induced prostate cancer cell proliferation ([4]; 0.3 μM lycopene combined with phytoene and phytofluene mixture, FIG. 2)	serum concentration plateau [5] [nM]	in-vitro activity with increasing concentration [6]
CC(C)=CCC/C(C)=C/CC/C(C)=C/CC/C(C)=C/C=C/C=C(\C)CC/C=C(\C)CC/C=C(\C)CCC=C(C)C [phytoene]	ineffective	fewer UV-B induced tumors than the control mice	displayed resistance									
CC(C)=CCC/C(C)=C/C=C/C(C)=C/C=C/C(C)=C/C=C/C=C(C)/C=C/C=C(C)/C=C/C=C(\C)CCC=C(C)C [lycopene]				enhances the inhibitory effects	enhances the inhibitory effects	enhances the inhibitory effects	no decrease in proliferation	2 to 3	enhances the inhibitory effects	enhances the inhibitory effects	1000 to 1200	improved activity with the increase of concentration
